Measured values from patent publication US10894786B2, “Substituted pyrazole derivatives as selective CDK12/13 inhibitors” (Aurigene Discovery Technologies Limited, priority 2018, dated 2021).
Read-outs that look alike come from different tables or passages of the source. Blank lines part the entries; values can stand above or below the compound they belong to.

Tests used:
CDK13 = CDK13 (Homo sapiens (Human), UniProt Q14004); assay: Biochemical assay for CDK13, LanthaScreen Eu Kinase Binding Assay; details: for IC50: kinase tracer 236 100 nM; for Ratio CDK7/CDK13: ratio of IC50
Excerpt: Binding of an inhibitor to the kinase competes for binding with the tracer, resulting in a loss of FRET signal.

CDK12 [1] = molecular target: T1, CDK12 (Homo sapiens (Human), UniProt Q9NYV4); assay: Biochemical assay for CDK12 (IC50 determination), LANCE TR-FRET; details: for IC50: ATP 100 μM, 60 min pre-incubation
Experimental: The inhibitory activity of the test compounds was assessed by the LANCE TR-FRET assay, which detects the ATP-dependent phosphorylation of an ULight-4E-BP1 (Thr37/Thr46) substrate peptide (100 nM) by CDK12 (30 nM). Briefly, the enzyme reaction was run in reaction buffer (25 mM HEPES (pH 7.5), 10 mM MgCl2, 0.01% BSA, 0.01% Triton x, 1 mM DTT). The assay was performed in 384-well plate format. The end concentration of the ATP substrate was 100 μM, and that of the ULight-4E-BP1 (Thr37/Thr46) substrate peptide was 100 nM, and of CDK12 was 30 nM. Pre-incubation of the compound and enzyme was performed for 60 min at room temperature. After 60 min incubation at room temperature, the reaction was terminated by the addition of 40 mM EDTA and 0.5 nM Eu-labeled anti-phospho-eIF4E-binding protein (Thr37/46) antibody in LANCE detection buffer. […] The readout was calculated as (acceptor counts/donor counts)×1000. The IC50 values were derived by fitting a sigmoidal dose-response curve to a plot of assay readout over inhibitor concentration.

CDK12 [2] = molecular target: T1, CDK12; assay: Biochemical assay for CDK12 (Kd determination), kinase-tagged phage/qPCR competition binding
Experimental: Kinase-tagged T7 phage strains were grown in parallel in 24-well blocks in an E. coli host derived from the BL21 strain. E. coli were grown to log-phase and infected with T7 phage from a frozen stock (multiplicity of infection=0.4) and incubated with shaking at 32° C. until lysis (90-150 minutes). The lysates were centrifuged (6,000×g) and filtered (0.2 μm) to remove cell debris. The remaining kinases were produced in HEK-293 cells and subsequently tagged with DNA for qPCR detection. […] The liganded beads were blocked with excess biotin and washed with blocking buffer (SeaBlock (Pierce), 1% BSA, 0.05% Tween 20, 1 mM DTT) to remove unbound ligand and to reduce non-specific phage binding. […] Test compounds were prepared as 40× stocks in 100% DMSO and directly diluted into the assay. All reactions were performed in polypropylene 384-well plates in a final volume of 0.02 ml. […] The kinase concentration in the eluates was measured by qPCR.
Target sequence in this assay (Q9NYV4 whole entry, species assumed): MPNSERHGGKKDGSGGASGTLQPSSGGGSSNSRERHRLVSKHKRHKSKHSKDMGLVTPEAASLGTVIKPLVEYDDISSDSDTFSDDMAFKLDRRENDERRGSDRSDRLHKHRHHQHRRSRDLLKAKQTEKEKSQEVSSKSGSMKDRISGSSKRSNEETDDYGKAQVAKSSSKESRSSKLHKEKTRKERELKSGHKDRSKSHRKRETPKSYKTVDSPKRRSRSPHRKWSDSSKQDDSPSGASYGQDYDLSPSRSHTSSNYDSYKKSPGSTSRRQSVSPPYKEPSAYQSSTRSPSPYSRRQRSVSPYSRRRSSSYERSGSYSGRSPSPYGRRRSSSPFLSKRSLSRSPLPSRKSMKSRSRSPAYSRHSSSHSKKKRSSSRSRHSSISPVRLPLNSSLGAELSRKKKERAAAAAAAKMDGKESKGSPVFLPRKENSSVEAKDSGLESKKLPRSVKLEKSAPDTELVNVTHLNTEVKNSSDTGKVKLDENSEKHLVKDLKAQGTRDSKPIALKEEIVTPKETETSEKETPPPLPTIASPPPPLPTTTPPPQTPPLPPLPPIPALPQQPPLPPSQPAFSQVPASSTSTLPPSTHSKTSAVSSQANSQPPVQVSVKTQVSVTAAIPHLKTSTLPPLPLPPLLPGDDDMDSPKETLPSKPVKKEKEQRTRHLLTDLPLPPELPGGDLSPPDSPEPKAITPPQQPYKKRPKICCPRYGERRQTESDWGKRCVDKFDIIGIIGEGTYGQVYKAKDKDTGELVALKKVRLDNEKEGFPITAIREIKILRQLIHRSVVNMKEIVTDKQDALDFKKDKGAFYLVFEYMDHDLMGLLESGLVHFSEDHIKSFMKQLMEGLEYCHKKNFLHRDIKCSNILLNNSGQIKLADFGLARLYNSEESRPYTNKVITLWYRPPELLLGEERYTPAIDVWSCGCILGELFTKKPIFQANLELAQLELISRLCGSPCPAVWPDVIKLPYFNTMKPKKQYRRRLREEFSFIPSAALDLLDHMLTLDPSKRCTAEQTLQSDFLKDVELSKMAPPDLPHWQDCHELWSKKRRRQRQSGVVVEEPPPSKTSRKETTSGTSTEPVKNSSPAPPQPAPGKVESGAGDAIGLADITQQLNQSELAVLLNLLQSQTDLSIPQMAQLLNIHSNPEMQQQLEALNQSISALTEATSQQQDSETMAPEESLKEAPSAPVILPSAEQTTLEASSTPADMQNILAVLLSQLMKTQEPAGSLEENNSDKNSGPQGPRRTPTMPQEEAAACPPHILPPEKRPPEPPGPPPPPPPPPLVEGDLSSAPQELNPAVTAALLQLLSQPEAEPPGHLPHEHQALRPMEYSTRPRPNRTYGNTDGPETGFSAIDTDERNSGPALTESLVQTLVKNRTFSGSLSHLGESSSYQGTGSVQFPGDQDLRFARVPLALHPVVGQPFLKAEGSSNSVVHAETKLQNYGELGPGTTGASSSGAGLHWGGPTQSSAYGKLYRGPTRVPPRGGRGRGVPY

CDK12 [3] = molecular target: T1, CDK12; assay: CDK12 plate based target engagement assay in Jurkat cells; type: cell-based; details: for CDK12 Target Occupancy (Tocc50) μM in Jurkat cells: 6 hours
Experimental: Jurkat cells were treated with varying concentrations of the compound for 6 hours. The DMSO concentration was maintained at 0.1%. Cells were harvested and lysed. 200 μg of the lysate was incubated with 1 μM Bio-THZ531 in the presence of 1 mM DTT and incubated on a rocker at 4° C. overnight. 100 μL of this sample was added to pre-washed streptavidin coated plates and incubated at room temperature on a rocker for 2 hours. The plates were washed and incubated with CDK12 antibody for overnight at 4° C. Next day the plate was washed and incubated for 2 hours with HRP labelled anti rabbit secondary antibody. Bio-THZ531 bound CDK12 was determined using TMB substrate. […] Percentage CDK12 occupancy with the test compound was calculated over untreated control. Occupancy 50 was calculated by fitting the dose response data to sigmoidal curve fitting equation using GraphPad Prism software V5.
Target sequence in this assay (Q9NYV4 whole entry, looked up): as the sequence (Q9NYV4 whole entry, species assumed) above
Target sequence in this assay (O75909 whole entry partner, looked up): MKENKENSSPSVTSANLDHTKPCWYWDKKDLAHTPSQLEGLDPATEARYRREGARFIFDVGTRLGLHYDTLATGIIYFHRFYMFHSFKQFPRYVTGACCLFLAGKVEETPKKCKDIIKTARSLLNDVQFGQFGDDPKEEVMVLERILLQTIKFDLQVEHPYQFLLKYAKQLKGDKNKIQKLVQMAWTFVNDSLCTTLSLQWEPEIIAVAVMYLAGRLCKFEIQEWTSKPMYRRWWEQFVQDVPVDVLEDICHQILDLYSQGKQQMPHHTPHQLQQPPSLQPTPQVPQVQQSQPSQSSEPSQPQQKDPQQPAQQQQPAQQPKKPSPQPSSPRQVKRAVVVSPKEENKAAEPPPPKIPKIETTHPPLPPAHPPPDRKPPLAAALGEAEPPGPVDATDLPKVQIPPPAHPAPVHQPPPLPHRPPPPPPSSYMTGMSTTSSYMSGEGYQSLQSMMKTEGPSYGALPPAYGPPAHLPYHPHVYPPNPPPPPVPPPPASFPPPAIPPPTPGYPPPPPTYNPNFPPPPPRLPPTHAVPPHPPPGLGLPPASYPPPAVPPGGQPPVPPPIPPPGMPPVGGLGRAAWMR

CDK7 [4] = molecular target: T2, CDK7 (Homo sapiens (Human), UniProt P50613); assay: Biochemical assay for CDK7, LANCE TR-FRET; details: read-out: CDK 7 IC50
Experimental: The inhibitory activity of the test compounds was assessed by the LANCE TR-FRET assay, which detects the ATP-dependent phosphorylation of an ULight-myelin basic protein (MBP) substrate peptide (100 nM) by CDK7 (10 nM). Briefly, the enzyme reaction was run in reaction buffer (20 mM HEPES (pH 7.5), 10 mM MgCl2, 0.01% Triton x, 100 μM Sodium Orthovanadate, 1 mM DTT). The assay was performed in 384-well plate. The end concentration of the ATP substrate was 1 mM/100 μM, and that of the ULight-MBP substrate peptide was 100 nM, and of CDK7 was 10 nM. Pre-incubation of the compound and enzyme was performed for 60 min at room temperature. After 60 min incubation at room temperature, the reaction was terminated by the addition of 40 mM EDTA and 1 nM Eu-labeled anti-phospho-MBP-binding protein antibody in the buffer. […] The readout was calculated as (acceptor counts/donor counts)×1000. The IC50 values were derived by fitting a sigmoidal dose-response curve to a plot of assay readout over inhibitor concentration.
Target sequence in this assay (P50613 whole entry, looked up, species assumed): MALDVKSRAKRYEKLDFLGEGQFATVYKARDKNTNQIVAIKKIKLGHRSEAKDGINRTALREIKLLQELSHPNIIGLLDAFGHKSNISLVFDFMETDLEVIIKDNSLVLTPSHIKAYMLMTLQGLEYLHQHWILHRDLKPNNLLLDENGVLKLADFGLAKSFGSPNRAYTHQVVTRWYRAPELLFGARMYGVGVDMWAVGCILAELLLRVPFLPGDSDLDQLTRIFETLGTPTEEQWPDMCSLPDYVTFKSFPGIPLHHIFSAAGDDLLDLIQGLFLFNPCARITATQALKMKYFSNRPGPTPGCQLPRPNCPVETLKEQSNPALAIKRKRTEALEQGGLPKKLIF
Target sequence in this assay (P51946 whole entry partner, looked up, species assumed): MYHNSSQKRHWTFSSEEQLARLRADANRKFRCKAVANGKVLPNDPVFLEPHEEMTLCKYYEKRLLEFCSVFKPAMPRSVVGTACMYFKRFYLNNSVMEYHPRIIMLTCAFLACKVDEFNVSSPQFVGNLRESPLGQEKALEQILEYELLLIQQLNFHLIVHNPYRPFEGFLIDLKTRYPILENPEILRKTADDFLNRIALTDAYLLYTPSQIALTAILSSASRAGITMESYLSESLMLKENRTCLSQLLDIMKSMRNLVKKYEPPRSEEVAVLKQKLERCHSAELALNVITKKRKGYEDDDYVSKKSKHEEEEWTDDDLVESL
Target sequence in this assay (P51948 whole entry partner, looked up, species assumed): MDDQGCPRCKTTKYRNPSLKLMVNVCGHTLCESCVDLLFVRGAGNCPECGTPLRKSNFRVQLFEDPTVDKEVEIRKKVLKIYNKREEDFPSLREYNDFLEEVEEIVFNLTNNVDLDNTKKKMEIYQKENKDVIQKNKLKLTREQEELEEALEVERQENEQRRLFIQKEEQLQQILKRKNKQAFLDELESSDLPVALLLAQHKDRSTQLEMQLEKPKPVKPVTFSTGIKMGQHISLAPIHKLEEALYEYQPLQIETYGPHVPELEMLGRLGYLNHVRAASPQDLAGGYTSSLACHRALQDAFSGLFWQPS

CDK7 [5] = molecular target: T2, CDK7; assay: CDK7 target occupancy in Jurkat cells; type: cell-based
[6] = ATP 1 mM/100 μM, 60 min pre-incubation

Structure (SMILES): C=CC(=O)N1CCC=C(c2ccc(C(C)C(=O)Nc3cc(C4CC4)[nH]n3)cn2)C1 (single isomer, unassigned) [Compound 37, 2-(1′-acryloyl-1′,2′,5′,6′-tetrahydro-[2,3′-bipyridin]-5-yl)-N-(5-cyclopropyl-1H-pyrazol-3-yl)propanamide]
IC50 (CDK13): 3 nM
IC50 (CDK12 [1]): 29 nM
Kd (CDK12 [2]): < 25 nM
CDK12 Target Occupancy (Tocc50) μM in Jurkat cells (CDK12 [3]; Jurkat cells): 0.012 µM

IC50 (CDK13): 4.3 nM
IC50 (CDK12 [1]): 189 nM
Kd (CDK12 [2]): < 25 nM
CDK12 Target Occupancy (Tocc50) μM in Jurkat cells (CDK12 [3]; Jurkat cells): 0.050 µM
Structure (SMILES): C=CC(=O)N1CCC=C(c2ccc([C@H](C)C(=O)Nc3cc(C4CC4)[nH]n3)cc2)C1 [Compound 34, (S)-2-(4-(1-acryloyl-1,2,5,6-tetrahydropyridin-3-yl)phenyl)-N-(5-cyclopropyl-1H-pyrazol-3-yl)propanamide]

Structure (SMILES): C=CC(=O)N1CCC(c2ccc([C@H](C)C(=O)Nc3cc(C4CC4)[nH]n3)cc2)CC1 [Compound 12, (S)-2-(4-(1-acryloylpiperidin-4-yl)phenyl)-N-(5-cyclopropyl-1H-pyrazol-3-yl)propanamide]
IC50 (CDK13): 7 nM
Ratio CDK7/CDK13 (CDK13): 404.28
Ratio CDK7/CDK12 (CDK12 [1]): 18.74
IC50 (CDK12 [1]): 151 nM
IC50 (CDK7 [4]; [6]): 2830 nM
CDK12 Target Occupancy (Tocc50) μM in Jurkat cells (CDK12 [3]; Jurkat cells): 0.080 µM

Structure (SMILES): C=CC(=O)N1CC=C(c2ccc(C(C)C(=O)Nc3cc(C4CC4)[nH]n3)cn2)CC1 (single isomer, unassigned) [Compound 6, 2-(1′-acryloyl-1′,2′,3′,6′-tetrahydro-[2,4′-bipyridin]-5-yl)-N-(5-cyclopropyl-1H-pyrazol-3-yl)propanamide]
IC50 (CDK13): 6 nM
Ratio CDK7/CDK13 (CDK13): 216.66
Ratio CDK7/CDK12 (CDK12 [1]): 32.5
IC50 (CDK12 [1]): 40 nM
IC50 (CDK7 [4]; [6]): 1300 nM
Kd (CDK12 [2]): < 25 nM
CDK12 Target Occupancy (Tocc50) μM in Jurkat cells (CDK12 [3]; Jurkat cells): 0.012 µM

Structure (SMILES): C[C@H](C(=O)Nc1cc(C2CC2)[nH]n1)c1ccc(C2=CCN(C(=O)/C=C/CN(C)C)CC2)cc1 [Compound 15, (S,E)-N-(5-cyclopropyl-1H-pyrazol-3-yl)-2-(4-(1-(4-(dimethylamino)but-2-enoyl)-1,2,3,6-tetrahydropyridin-4-yl)phenyl)propanamide]
IC50 (CDK13): 18.8 nM
Ratio CDK7/CDK13 (CDK13): 33.03
Ratio CDK7/CDK12 (CDK12 [1]): 2.64
IC50 (CDK12 [1]): 235 nM
IC50 (CDK7 [4]; [6]): 621 nM
Jurkat Cells, CDK7 Target Occ50 (CDK7 [5]): 1671 nM
Ratio CDK7/CDK12 (CDK12 [3]): 8.175
Jurkat Cells, CDK12 Target Occ50 (CDK12 [3]; Jurkat cells): 204.4 nM
binding affinity towards CDK12 in comparison to CDK7 (CDK12 [3]; Jurkat cells target occupancy): > 8 fold
CDK12 Target Occupancy (Tocc50) μM in Jurkat cells (CDK12 [3]; Jurkat cells): 0.204 µM

Structure (SMILES): C=CC(=O)N1CCN(c2ccc(C(C)C(=O)Nc3cc(C4CC4)[nH]n3)cc2)CC1 (centres unmarked) [Compound 17, 2-(4-(4-acryloylpiperazin-1-yl)phenyl)-N-(5-cyclopropyl-1H-pyrazol-3-yl)propanamide]
IC50 (CDK13): 81 nM
Ratio CDK7/CDK13 (CDK13): 98.27
Ratio CDK7/CDK12 (CDK12 [1]): 13.49
IC50 (CDK12 [1]): 590 nM
IC50 (CDK7 [4]): 7960 nM
Kd (CDK12 [2]): > 100 nM
CDK12 Target Occupancy (Tocc50) μM in Jurkat cells (CDK12 [3]; Jurkat cells): 0.030 µM
